Test results reported in ChEMBL document CHEMBL4354803, “Synthesis and biological activity of structurally diverse phthalazine derivatives: A systematic review” (Bioorg Med Chem, 2019).

Experiments:
[1] = Inhibition of human HeLa cell derived PARP preincubated for 10 mins followed by NAD and double stranded DNA-oligos addition and measured after 45 mins by scintillation counting; assay type: cell-based
[2] = tested on: Mus musculus; assay: Antinociceptive activity in Balb/c mouse at 20 mg/kg, ip after 120 mins by tail flick test relative to control; assay type: functional
[3] = tested on: PC-3; assay: Cytotoxicity against human PC3 cells after 24 hrs by MTT assay; assay type: functional, cell-based; details: PC-3, 24 h
[4] = target: T1, Poly [ADP-ribose] polymerase 1 (Homo sapiens, UniProt P09874); assay: Inhibition of human PARP1 expressed in Escherichia coli incubated for 15 to 40 mins by ELISA
[5] = species on record: Mus musculus; assay: animal or person; details: ICR, ip
Description: Anticonvulsant activity in ip dosed ICR mouse assessed as protection against 50 mA current-induced seizure pretreated for 30 mins followed by seizure induction measured for 60 mins by maximal electroshock seizure test

[6] = target: T2, NAD-dependent protein deacetylase sirtuin-1 (Homo sapiens) (UniProt Q96EB6); assay: Modulation of SIRT1 (unknown origin) expressed in Escherichia coli BL21(DE3) cells using Ac-EE-K(biotin)-GQSTSSHSK(Ac)NleSTEG-K(5TMR)-EE-NH2 as substrate after 25 mins by mass spectrometry
T2 sequence (whole entry): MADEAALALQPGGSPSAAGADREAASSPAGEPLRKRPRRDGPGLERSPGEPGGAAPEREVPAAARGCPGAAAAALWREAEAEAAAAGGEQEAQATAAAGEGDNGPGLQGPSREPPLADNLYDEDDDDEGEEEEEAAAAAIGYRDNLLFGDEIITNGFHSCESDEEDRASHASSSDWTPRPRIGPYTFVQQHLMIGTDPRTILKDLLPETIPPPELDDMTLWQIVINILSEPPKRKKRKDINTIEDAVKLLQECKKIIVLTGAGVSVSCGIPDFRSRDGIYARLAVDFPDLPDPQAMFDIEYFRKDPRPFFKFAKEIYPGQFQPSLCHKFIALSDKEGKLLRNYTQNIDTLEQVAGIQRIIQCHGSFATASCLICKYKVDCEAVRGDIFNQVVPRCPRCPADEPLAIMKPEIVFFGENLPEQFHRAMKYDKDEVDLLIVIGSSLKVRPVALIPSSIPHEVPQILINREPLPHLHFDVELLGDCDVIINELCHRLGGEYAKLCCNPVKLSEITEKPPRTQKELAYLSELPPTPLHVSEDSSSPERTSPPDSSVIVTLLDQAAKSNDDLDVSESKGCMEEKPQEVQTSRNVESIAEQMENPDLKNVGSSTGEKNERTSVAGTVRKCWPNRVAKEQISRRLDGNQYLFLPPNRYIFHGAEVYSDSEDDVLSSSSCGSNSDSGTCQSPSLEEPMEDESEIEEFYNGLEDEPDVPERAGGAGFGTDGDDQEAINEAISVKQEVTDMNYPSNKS

[7] = target: T1, Poly [ADP-ribose] polymerase 1; assay: Inhibition of human PARP1 expressed in Escherichia coli incubated for 10 mins by colorimetric assay
[8] = target: Aldo-keto reductase family 1 member B1 (Homo sapiens, UniProt P15121); assay: Inhibition of human Aldose reductase
[9] = tested on: HepG2; assay: Cytotoxicity against human HepG2 cells incubated for 48 hrs by sulforhodamine B staining based ELISA; assay type: functional, cell-based; details: HepG2, 48 h
[10] = tested on: Mus musculus; assay: Antidiabetic activity in C57BL/KsJ mouse assessed as maximum reduction in blood glucose level at 200 mg/kg, po administered for 9 days by spectrometric method relative to control; assay type: functional; design: scale not given: the % may be the effect or the level left
[11] = target: Cystic fibrosis transmembrane conductance regulator (Homo sapiens, UniProt P13569, F508DEL/H148Q/I152L); assay: Inhibition of human CFTR F508 deletion mutant expressed in rat FRT cells coexpressing YFP-H148Q/I152L 25,22 incubated for 60 to 120 mins in presence of forskolin by fluorescent method; assay type: cell-based
[12] = tested on: HepG2; assay: Potency index, ratio of sorafenib IC50 to compound IC50 for cytotoxicity against human HepG2 cells by sulforhodamine B assay; assay type: functional
[13] = tested on: HepG2; assay: Potency index, ratio of doxorubicin IC50 to compound IC50 for cytotoxicity against human HepG2 cells by sulforhodamine B assay; assay type: functional
[14] = tested on: MCF7; assay: Cytotoxicity against human MCF7 cells; assay type: functional; details: read-out: LC50 (the source's name)
[15] = target: T1, Poly [ADP-ribose] polymerase 1; assay: Inhibition of N-terminal GST-tagged human PARP1 expressed in a Baculovirus infected Sf9 insect cells using biotinylated substrate incubated for 1 hr by colorimetric method
[16] = tested on: HepG2; assay: cells; details: Homo sapiens, HepG2, 24 h
Description: Cytotoxicity against human HepG2 cells after 24 hrs by MTT assay

[17] = tested on: MCF7; assay: cells; details: Homo sapiens, MCF7, 24 h
Description: Cytotoxicity against human MCF7 cells after 24 hrs by MTT assay

[18] = Inhibition of recombinant human PARP expressed in Escherichia coli in presence of NAD+ by microplate scintillation counting method
[19] = Inhibition of PARP in human C41 cells assessed as reduction in protein accumulation preincubated for 30 mins followed by H2O2 addition and measured after 10 mins by FITC/DAPI-staining based fluorescence method; assay type: cell-based

T1 sequence (P09874 whole entry): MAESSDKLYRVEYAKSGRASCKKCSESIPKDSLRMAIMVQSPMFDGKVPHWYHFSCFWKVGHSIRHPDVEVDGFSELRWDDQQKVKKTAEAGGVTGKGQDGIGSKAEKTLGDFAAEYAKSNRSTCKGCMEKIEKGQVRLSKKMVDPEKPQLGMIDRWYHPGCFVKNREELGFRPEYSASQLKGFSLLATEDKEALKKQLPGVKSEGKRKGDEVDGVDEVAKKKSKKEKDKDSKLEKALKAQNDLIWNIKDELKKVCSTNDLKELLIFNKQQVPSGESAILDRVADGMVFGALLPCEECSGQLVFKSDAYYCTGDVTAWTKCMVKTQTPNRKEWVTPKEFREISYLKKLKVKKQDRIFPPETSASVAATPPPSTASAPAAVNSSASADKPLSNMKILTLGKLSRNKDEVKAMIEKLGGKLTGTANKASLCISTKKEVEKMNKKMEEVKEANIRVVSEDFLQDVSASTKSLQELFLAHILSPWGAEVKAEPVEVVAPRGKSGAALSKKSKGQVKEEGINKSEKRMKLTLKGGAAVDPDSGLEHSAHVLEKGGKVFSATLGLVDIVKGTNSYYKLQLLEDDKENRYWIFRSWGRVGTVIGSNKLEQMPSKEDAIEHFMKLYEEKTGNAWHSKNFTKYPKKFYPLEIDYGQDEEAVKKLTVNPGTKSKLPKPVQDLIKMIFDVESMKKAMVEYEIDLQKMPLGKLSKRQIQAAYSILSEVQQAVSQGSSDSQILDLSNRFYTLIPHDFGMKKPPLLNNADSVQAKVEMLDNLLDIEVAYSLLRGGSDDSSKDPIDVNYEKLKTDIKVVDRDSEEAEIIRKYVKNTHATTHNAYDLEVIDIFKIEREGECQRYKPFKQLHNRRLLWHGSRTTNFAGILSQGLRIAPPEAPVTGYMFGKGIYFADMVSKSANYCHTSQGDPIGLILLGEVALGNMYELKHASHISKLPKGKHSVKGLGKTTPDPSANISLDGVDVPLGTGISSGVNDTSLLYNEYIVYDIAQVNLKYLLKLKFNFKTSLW
Chain of Cystic fibrosis transmembrane conductance regulator (P13569 whole entry, looked up, stated change not applied): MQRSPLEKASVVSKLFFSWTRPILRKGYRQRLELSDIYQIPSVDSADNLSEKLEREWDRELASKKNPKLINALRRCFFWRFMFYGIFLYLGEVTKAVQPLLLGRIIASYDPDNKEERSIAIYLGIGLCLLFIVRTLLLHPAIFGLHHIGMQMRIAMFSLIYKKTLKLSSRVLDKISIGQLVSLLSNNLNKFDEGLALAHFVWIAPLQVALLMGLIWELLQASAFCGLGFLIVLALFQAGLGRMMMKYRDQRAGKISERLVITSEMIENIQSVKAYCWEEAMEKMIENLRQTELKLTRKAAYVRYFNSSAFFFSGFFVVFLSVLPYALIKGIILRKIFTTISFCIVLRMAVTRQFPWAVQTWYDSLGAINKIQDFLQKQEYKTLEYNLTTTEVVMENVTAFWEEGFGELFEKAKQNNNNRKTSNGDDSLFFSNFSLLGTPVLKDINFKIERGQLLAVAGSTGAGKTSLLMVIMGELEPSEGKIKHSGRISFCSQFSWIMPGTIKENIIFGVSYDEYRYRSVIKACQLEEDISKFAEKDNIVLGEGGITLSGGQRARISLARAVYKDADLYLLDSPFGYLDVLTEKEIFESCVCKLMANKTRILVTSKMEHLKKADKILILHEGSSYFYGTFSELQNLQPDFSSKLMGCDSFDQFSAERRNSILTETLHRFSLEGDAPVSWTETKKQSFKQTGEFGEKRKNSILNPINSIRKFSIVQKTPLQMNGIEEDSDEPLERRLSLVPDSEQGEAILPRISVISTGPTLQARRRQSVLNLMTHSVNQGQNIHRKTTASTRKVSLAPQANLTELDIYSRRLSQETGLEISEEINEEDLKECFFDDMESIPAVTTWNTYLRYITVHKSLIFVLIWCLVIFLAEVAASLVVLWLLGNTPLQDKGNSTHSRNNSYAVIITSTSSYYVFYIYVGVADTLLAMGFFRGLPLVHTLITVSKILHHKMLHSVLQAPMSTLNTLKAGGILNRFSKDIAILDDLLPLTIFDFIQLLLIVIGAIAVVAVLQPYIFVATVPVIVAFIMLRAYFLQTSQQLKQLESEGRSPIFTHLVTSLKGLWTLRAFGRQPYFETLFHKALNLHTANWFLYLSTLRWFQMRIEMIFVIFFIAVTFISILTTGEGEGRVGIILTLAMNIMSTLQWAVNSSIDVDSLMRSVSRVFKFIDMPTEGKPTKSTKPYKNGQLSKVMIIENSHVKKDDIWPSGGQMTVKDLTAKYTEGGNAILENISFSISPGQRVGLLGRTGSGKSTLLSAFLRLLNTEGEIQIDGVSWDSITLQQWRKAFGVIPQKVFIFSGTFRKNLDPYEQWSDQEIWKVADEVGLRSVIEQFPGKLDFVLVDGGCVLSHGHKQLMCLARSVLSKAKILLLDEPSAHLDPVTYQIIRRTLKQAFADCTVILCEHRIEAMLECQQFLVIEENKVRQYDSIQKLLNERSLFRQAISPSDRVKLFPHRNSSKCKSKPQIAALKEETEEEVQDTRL

O=C(Nc1ccc(-c2cccc(Cc3n[nH]c(=O)c4ccccc34)c2)cc1)C1CC1
IC50 [1]: 57 nM

CN(C)CCn1nc(-c2ccccc2)c2ccccc2c1=O
MPE [2]: 39.61%

O=c1[nH]cc(F)c(=O)[nH]1 [FLUOROURACIL]
IC50 [3]: 63800 nM

O=C(c1cc(Cc2n[nH]c(=O)c3ccccc23)cc2c1OCC2)N1CCn2c(nnc2C(F)(F)F)C1
IC50 [4]: 1.7 nM

O=C(O)CSc1nnc(Cn2[nH]c(=O)c3ccccc3c2=O)o1
ED50 [5]: 184 µmol/kg

CCOC1CCN(C(=O)c2cc(Cc3n[nH]c(=O)c4ccccc34)ccc2F)CC1
IC50 [1]: 3 nM

O=C(c1cc(Cc2n[nH]c(=O)c3ccccc23)ccc1F)N1CCNCC1
IC50 [1]: < 20 nM

O=C(c1cc(Cc2n[nH]c(=O)c3ccccc23)ccc1F)N1CCn2cnnc2C1
IC50 [4]: 5000 nM

O=C(Nc1cccc2cnn(-c3cccc(C(F)(F)F)c3)c(=O)c12)c1cccc(OCC(O)CO)n1 (configuration not stated)
EC1.5 [6]: < 5 µM

O=C(c1cc(Cc2n[nH]c(=O)c3ccccc23)ccc1F)N1CCn2c(nnc2C2CC2)C1
IC50 [7]: 8.41 nM

O=C(O)Cc1nn(Cc2nc3cc(C(F)(F)F)ccc3s2)c(=O)c2ncccc12
IC50 [8]: 2.1 to 52 nM

CC(=O)CNC(=O)Cn1nc(Cc2ccccc2)c2ccccc2c1=O
IC50 [9]: 10 nM

Cc1nn(CCOc2ccc(CC3SC(=O)NC3=O)cc2)c(=O)c2ccccc12 (configuration not stated)
Activity [10]: <=61%

Cc1nc2ccc(N(C)C(=O)Cn3nc(-c4cccc(Cl)c4)c4ccccc4c3=O)cc2o1
EC50 [11]: < 10000 nM

O=C(Nc1cccc2cnn(-c3cccc(C(F)(F)F)c3)c(=O)c12)c1cccc(CN2CCOCC2)n1
EC1.5 [6]: < 5 µM

O=C(Nc1cccc2cnn(-c3cccc(C(F)(F)F)c3)c(=O)c12)c1cnccn1
EC1.5 [6]: < 5 µM

O=C(Cn1nc(Cc2ccccc2)c2ccccc2c1=O)Nc1ccccc1Cl
Ratio IC50 [12]: 2.9
Ratio IC50 [13]: 2.9

CC(S)C[C@H](NC(=O)Cn1ncc2ccccc2c1=O)C(N)=O (some centres not stated)
CC50 [14]: 20300 nM

O=C(CCCn1nc(-c2ccccc2)c2ccccc2c1=O)Nc1cccc(Cl)c1
IC50 [15]: 97 nM

COC1CCN(C(=O)c2cc(Cc3n[nH]c(=O)c4ccccc34)ccc2F)CC1 [AZD2461]
IC50 [1]: 5 nM

O=C(Nc1cccc2cnn(-c3cccc(OC(F)(F)F)c3)c(=O)c12)c1cccc(OCC(O)CO)n1 (configuration not stated)
EC1.5 [6]: < 5 µM

Cc1c(CC(=O)O)nn(Cc2nc3cc(F)cc(F)c3s2)c(=O)c1C
IC50 [8]: 3.2 to 5 nM

O=c1c2ccccc2c(Cc2ccccc2)nn1CC(=S)NNS(=O)(=O)c1ccccc1
IC50 [16]: 22200 nM
IC50 [17]: 19800 nM

O=C(c1cc(Cc2n[nH]c(=O)c3ccccc23)ccc1F)N1CCN(c2ncccn2)CC1
IC50 [18]: 0.7 nM
EC50 [19]: 0.7 nM
